Entries after “also recorded” stand apart in the source; their conditions may differ.
How the values were obtained:
NIH/3T3 cells = assay: MTT assay, healthy cell line NIH/3T3; format: cell-based; conditions: Mus musculus, NIH3T3, 24 h treatment, mean ± SD
Procedure: (§1) MCF-7 (human ER + breast cancer, HTB-22, USA), A549 (human nonsmall cell lung cancer, ATTC CRM-CCL-185, USA), HepG2 (human liver cancer, ATTC HB-8065, USA), and NIH/3T3 (mouse embryonic fibroblast, ATCC, CRL-1658, USA) cells were maintained in DMEM supplemented with 10% fetal bovine serum and 1% penicillin/streptomycin. The cells were maintained under appropriate conditions (37 °C, 5% CO2).
(§2) The antiproliferative activity of the newly synthesized compounds was measured using the MTT assay as described in a previous study. Briefly, cells were seeded at a density of 6 × 10^3 cells/well and incubated for 24 h in a 37 °C humidified incubator with 5% CO2. Afterwards, the cells were treated with increasing concentrations (1, 2.5, 5, 10, 25, 50, 75, and 100 μM) of compounds and incubated for another 24 h. Moreover, some cells were incubated with doxorubicin (1, 5, 10, 25, and 50 μM) for comparison, while other cells treated only with 1% DMSO was used as the solvent control. After incubation, 20 μL of MTT solution (5 mg/mL in PBS) was added to each well, and the plate was incubated for 4 h under the same conditions. Following this period, the medium was discarded and replaced with DMSO. The absorbance of dissolved formazan crystals was measured using a multiplate reader. The IC50 value and the selectivity index of each compound were calculated as previously described.
(§3) The antiproliferative effect of all newly synthesized thiazole-integrated pyrrolotriazinone derivatives were assessed against cancer cell lines (MCF-7, A549, and HepG2) as well as a healthy cell line (NIH/3T3) using the MTT assay. The IC50 values were determined through the nonlinear regression algorithm for log (inhibitor) versus normalized response-variable slope, as implemented in GraphPad [Y = 100/(1 + 10^X−LogIC50), where X represents the logarithm of the inhibitor concentration and Y denotes the response]. Additionally, Selectivity Indices (SI: IC50 of healthy cells/IC50 of cancer cells) were calculated.

HepG2 cells = assay: MTT assay, antiproliferative activity, HepG2; format: cell-based, human; conditions: for IC50: Homo sapiens, HepG2, MTT, 24 h treatment, mean ± SD; for Selectivity Index (SI) HepG2: IC50 of healthy cells (NIH/3T3)/IC50 of cancer cells
Procedure: as §1, §2, §3

A549 cells = assay: MTT assay, antiproliferative activity, A549; format: cell-based, human; conditions: for IC50: Homo sapiens, A549, MTT, 24 h treatment, mean ± SD; for Selectivity Index (SI) A549: IC50 of healthy cells (NIH/3T3)/IC50 of cancer cells
Procedure: as §1, §2, §3

MCF-7 cells = assay: MTT assay, antiproliferative activity, MCF-7; format: cell-based, human; conditions: for IC50: Homo sapiens, MCF7, MTT, 24 h treatment, mean ± SD; for Selectivity Index (SI) MCF-7: IC50 of healthy cells (NIH/3T3)/IC50 of cancer cells
Procedure: as §1, §2, §3

PI3K [1] = assay: PI3K protein levels by ELISA in MCF-7 cells; format: cell-based, human; conditions: IC50 concentration, 24 h, compared to 1% DMSO control
Procedure: (§4) The protein levels of PI3K in MCF-7 and HepG2 cells were assessed using enzyme-linked immunosorbent assay (ELISA) kits. […] After the incubation period, the medium was collected, and PI3K protein levels were measured using ELISA kits according to the manufacturer’s instructions (Cat no: ELK9879, ELK Biotechnology, Denver, USA).

PI3K [2] = assay: PI3K protein levels by ELISA in HepG2 cells; format: cell-based, human; conditions: IC50 concentration, 24 h, compared to 1% DMSO control
Procedure: as §4

Row | IC50 (HepG2 cells) [µM] | IC50 (A549 cells) [µM] | IC50 (MCF-7 cells) [µM] | Structure (SMILES) | IC50 (NIH/3T3 cells) [µM] | Selectivity Index (SI) HepG2 (HepG2 cells) | Selectivity Index (SI) A549 (A549 cells) | Selectivity Index (SI) MCF-7 (MCF-7 cells) | PI3K protein levels in MCF-7 cells (PI3K [1]) | PI3K protein levels in HepG2 cells (PI3K [2])
1 | > 100 | > 100 | > 100 | Cc1csc(-n2ncc3cccn3c2=O)n1 [Compound 13, 3-(4-methylthiazol-2-yl)pyrrolo[1,2-d][1,2,4]triazin-4(3H)-one] | > 100 | 1.32 | 0.94 | 1.01 |  | 
2 | > 100 | > 100 | > 100 | O=c1n(-c2nc(-c3ccccc3)cs2)ncc2cccn12 [Compound 14, 3-(4-phenylthiazol-2-yl)pyrrolo[1,2-d][1,2,4]triazin-4(3H)-one] | > 100 | 1.04 | 1.25 | 0.96 |  | 
3 | > 100 | > 100 | > 100 | Cc1ccc(-c2csc(-n3ncc4cccn4c3=O)n2)cc1 [Compound 15, 3-(4-(p-tolyl)thiazol-2-yl)pyrrolo[1,2-d][1,2,4]triazin-4(3H)-one] | > 100 | 0.85 | 0.84 | 1.01 |  | 
4 | > 100 | > 100 | > 100 | O=c1n(-c2nc(-c3ccc(O)cc3)cs2)ncc2cccn12 [Compound 16, 3-(4-(4-hydroxyphenyl)thiazol-2-yl)pyrrolo[1,2-d][1,2,4]triazin-4(3H)-one] | > 100 | 1.02 | 1.32 | 1.10 |  | 
5 | > 100 | > 100 | > 100 | COc1ccc(-c2csc(-n3ncc4cccn4c3=O)n2)cc1 [Compound 17, 3-(4-(4-methoxyphenyl)thiazol-2-yl)pyrrolo[1,2-d][1,2,4]triazin-4(3H)-one] | > 100 | 1.22 | 1.44 | 1.34 |  | 
6 | > 100 | > 100 | 79.19 ± 0.61 | O=c1n(-c2nc(-c3ccc([N+](=O)[O-])cc3)cs2)ncc2cccn12 [Compound 18, 3-(4-(4-nitrophenyl)thiazol-2-yl)pyrrolo[1,2-d][1,2,4]triazin-4(3H)-one] | > 100 | 1.60 | 1.51 | 2.08 |  | 
7 | 52.8 ± 0.79 | 79.5 ± 1.13 | 61.8 ± 1.42 | O=c1n(-c2nc(-c3ccc(C(F)(F)F)cc3)cs2)ncc2cccn12 [Compound 19, 3-(4-(4-(trifluoromethyl)phenyl)thiazol-2-yl)pyrrolo[1,2-d][1,2,4]triazin-4(3H)-one] | > 100 | 2.82 | 1.87 | 2.41 |  | 
8 | 69.7 ± 1.26 | 44.5 ± 0.51 | 39.8 ± 0.54 | O=c1n(-c2nc(-c3ccc(F)cc3)cs2)ncc2cccn12 [Compound 20, 3-(4-(4-fluorophenyl)thiazol-2-yl)pyrrolo[1,2-d][1,2,4]triazin-4(3H)-one] | > 100 | 2.81 | 4.41 | 4.93 |  | 
9 | 10.2 ± 0.95 | 39.2 ± 1.41 | 11.2 ± 0.12 | O=c1n(-c2nc(-c3ccc(Cl)cc3)cs2)ncc2cccn12 [Compound 21, 3-(4-(4-chlorophenyl)thiazol-2-yl)pyrrolo[1,2-d][1,2,4]triazin-4(3H)-one] | > 100 | 10.40 | 2.72 | 9.51 | significantly reduced; also recorded: did reduce PI3K levels | did not alter PI3K levels
10 | 51.85 ± 0.23 | 71.2 ± 0.74 | 55.6 ± 1.05 | O=c1n(-c2nc(-c3ccc(Br)cc3)cs2)ncc2cccn12 [Compound 22, 3-(4-(4-bromophenyl)thiazol-2-yl)pyrrolo[1,2-d][1,2,4]triazin-4(3H)-one] | 93.46 ± 0.74 | 1.80 | 1.31 | 1.68 |  | 
11 | 17.2 ± 0.81 | 43.3 ± 1.09 | 15.2 ± 0.183 | COc1ccc(-c2csc(-n3ncc4cccn4c3=O)n2)cc1OC [Compound 23, 3-(4-(3,4-dimethoxyphenyl)thiazol-2-yl)pyrrolo[1,2-d][1,2,4]triazin-4(3H)-one] | 83.44 ± 0.15 | 4.85 |  | 5.49 |  | 
12 | 25.3 ± 1.06 | 45.23 ± 0.41 | 33.2 ± 0.49 | O=c1n(-c2nc(-c3ccc(F)c(F)c3)cs2)ncc2cccn12 [Compound 24, 3-(4-(3,4-difluorophenyl)thiazol-2-yl)pyrrolo[1,2-d][1,2,4]triazin-4(3H)-one] | > 100 | 6.19 | 3.46 | 4.72 |  | 
13 | 15.1 ± 0.61 | 25.2 ± 0.39 | 14.2 ± 0.42 | O=c1n(-c2nc(-c3ccc(F)c(Cl)c3)cs2)ncc2cccn12 [Compound 26, 3-(4-(3-chloro-4-fluorophenyl)thiazol-2-yl)pyrrolo[1,2-d][1,2,4]triazin-4(3H)-one] | > 100 | 9.22 | 5.53 |  | significantly reduced | 
14 | 44.8 ± 1.06 | 78.23 ± 0.05 | 63.17 ± 0.35 | O=c1n(-c2nc(-c3ccc(-c4ccccc4)cc3)cs2)ncc2cccn12 [Compound 28, 3-(4-([1,1′-biphenyl]-4-yl)thiazol-2-yl)pyrrolo[1,2-d][1,2,4]triazin-4(3H)-one] | > 100 | 3.93 | 2.25 | 2.79 |  | 
15 | > 100 | > 100 | > 100 | O=c1n(-c2nc(-c3ccc4ccccc4c3)cs2)ncc2cccn12 [Compound 29, 3-(4-(naphthalen-2-yl)thiazol-2-yl)pyrrolo[1,2-d][1,2,4]triazin-4(3H)-one] | > 100 | 1.26 | 1.19 | 1.03 |  | 
16 | > 100 | > 100 | > 100 | O=c1n(-c2nc(-c3cc4ccccc4o3)cs2)ncc2cccn12 [Compound 30, 3-(4-(benzofuran-2-yl)thiazol-2-yl)pyrrolo[1,2-d][1,2,4]triazin-4(3H)-one] | > 100 | 1.90 | 1.51 | 1.57 |  | 
17 | > 100 | > 100 | 91.2 ± 1.06 | O=c1n(-c2nc(-c3ccco3)cs2)ncc2cccn12 [Compound 31, 3-(4-(furan-2-yl)thiazol-2-yl)pyrrolo[1,2-d][1,2,4]triazin-4(3H)-one] | > 100 | 1.69 | 1.67 | 1.91 |  | 
18 | > 100 | > 100 | 83.71 ± 0.81 | O=c1n(-c2nc(-c3cccs3)cs2)ncc2cccn12 [Compound 32, 3-(4-(thiophen-2-yl)thiazol-2-yl)pyrrolo[1,2-d][1,2,4]triazin-4(3H)-one] | > 100 | 2.00 | 1.68 | 2.43 |  | 
19 | 1.27 ± 0.24 | 0.61 ± 0.12 | 1.34 ± 0.07 | COc1cccc2c1C(=O)c1c(O)c3c(c(O)c1C2=O)C[C@@](O)(C(=O)CO)C[C@@H]3O[C@H]1C[C@H](N)[C@H](O)[C@H](C)O1 [Dox, doxorubicin, reference compound] | 3.56 ± 0.02 | 2.8 | 5.83 | 2.6 |  | 
